Laboratory results: patent US11753407B2, “Compounds for treating spinal muscular atrophy” (PTC Therapeutics, Inc., priority 2012, dated 2023)

Tests used:
[1] = tested on: SMN2 minigene mRNA (SMN2-A minigene) in HEK293H cells; assay: SMN2 minigene mRNA splicing RT-qPCR assay in cultured cells; type: cell-based, human; conditions: Homo sapiens, HEK293-H; concentration increasing full length SMN2 mRNA 1.5-fold relative to vehicle-treated cells; HEK293H cells with SMN2-A minigene, 24 hours, 7-point concentration data; read-out: EC1.5x for production of full length SMN2 mRNA
Outline: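 EC1.5× = concentration raising full-length SMN2 minigene mRNA 1.5-fold over vehicle, from 7-point curves in duplicate. Stably transfected HEK293H cells exposed 24 h at 37 °C; lysates assayed by multiplex RT-qPCR, minigene FL signal normalized to GAPDH via modified ΔΔCt.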

[2] = tested on: Smn protein in SMA patient fibroblast cells (GM03813); assay: Smn protein assay in cultured cells (SMN HTRF); type: cell-based, human; conditions: SMA patient fibroblast cells, 48 hours; for EC1.5x for Smn protein expression: 7-point concentration curve, SMN HTRF, concentration producing 1.5 times Smn protein vs DMSO vehicle control; for maximum fold (Fold) increase of Smn protein: 7-point concentration data, fold relative to vehicle control
Outline: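 Smn protein quantified by HTRF with anti-SMN d2/kryptate pair, 665/620 nm ratio blank-corrected, in RIPA lysates of GM03813 fibroblasts after 48 h compound exposure (7 concentrations, 3.16-fold steps, triplicates). Values: concentration producing 1.5× vehicle Smn level, and maximal fold increase.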

Structure (SMILES)	EC (1.5-fold increase) [1]	EC1.5x for Smn protein expression [2]	maximum fold (Fold) increase of Smn protein [2]
CN1CCCN(c2ccc3nc(-c4ccc5c(cnn5C)c4)cc(=O)n3c2)CC1 [Compound 492, 7-(4-methyl-1,4-diazepan-1-yl)-2-(1-methyl-1H-indazol-5-yl)-4H-pyrido[1,2-a]pyrimidin-4-one]	0.3 to 1 µM	** (an EC1.5× between >1 μM and ≤3 μM is indicated by two stars (**))	**** (a fold increase between >1.5 and ≤1.65 is indicated by four stars (****))
Cc1cn2nc(-c3cc(=O)n4cc(C5CCNCC5)ncc4n3)cc2c(C)n1 [Compound 502, 2-(4,6-dimethylpyrazolo[1,5-a]pyrazin-2-yl)-7-(piperidin-4-yl)-4H-pyrazino[1,2-a]pyrimidin-4-one]	< 0.1 µM	**** (an EC1.5x≤0.3 μM is indicated by four stars (****))	***** (a fold increase >1.65 is indicated by five stars (*****))
CCN1CCC(c2cn3c(=O)cc(-c4cc5c(C)nc(C)cn5n4)nc3cn2)CC1 [Compound 504, 2-(4,6-dimethylpyrazolo[1,5-a]pyrazin-2-yl)-7-(1-ethylpiperidin-4-yl)-4H-pyrazino[1,2-a]pyrimidin-4-one]	< 0.1 µM	**** (an EC1.5x≤0.3 μM is indicated by four stars (****))	***** (a fold increase >1.65 is indicated by five stars (*****))
CCN1CC=C(c2cn3c(=O)cc(-c4ccc5c(cnn5C)c4)nc3cn2)CC1 [Compound 507, 7-(1-ethyl-1,2,3,6-tetrahydropyridin-4-yl)-2-(1-methyl-1H-indazol-5-yl)-4H-pyrazino[1,2-a]pyrimidin-4-one]	0.1 to 0.3 µM	*** (an EC1.5× between >0.3 μM and ≤1 μM is indicated by three stars (***))	**** (a fold increase between >1.5 and ≤1.65 is indicated by four stars (****))
CCN1CCN(c2cc(C)c3nc(-c4cc5c(C)nc(C)cn5n4)cc(=O)n3c2)CC1 [Compound 508, 2-(4,6-dimethylpyrazolo[1,5-a]pyrazin-2-yl)-7-(4-ethylpiperazin-1-yl)-9-methyl-4H-pyrido[1,2-a]pyrimidin-4-one]	< 0.1 µM	*** (an EC1.5× between >0.3 μM and ≤1 μM is indicated by three stars (***))	**** (a fold increase between >1.5 and ≤1.65 is indicated by four stars (****))
Cc1cn2nc(-c3cc(=O)n4nc(C5CCNCC5)ccc4n3)cc2c(C)n1 [Compound 512, 2-(4,6-dimethylpyrazolo[1,5-a]pyrazin-2-yl)-7-(piperidin-4-yl)-4H-pyrimido[1,2-b]pyridazin-4-one]	< 0.1 µM	**** (an EC1.5x≤0.3 μM is indicated by four stars (****))	***** (a fold increase >1.65 is indicated by five stars (*****))
Cc1cn2nc(-c3cc(=O)n4cc(N5CCCN(C)CC5)cc(C)c4n3)cc2c(C)n1 [Compound 520, 2-(4,6-dimethylpyrazolo[1,5-a]pyrazin-2-yl)-9-methyl-7-(4-methyl-1,4-diazepan-1-yl)-4H-pyrido[1,2-a]pyrimidin-4-one]	0.1 to 0.3 µM	**** (an EC1.5x≤0.3 μM is indicated by four stars (****))	**** (a fold increase between >1.5 and ≤1.65 is indicated by four stars (****))
Cn1cc2cc(-c3cc(=O)n4nc(C5CCNCC5)ccc4n3)ccc2n1 [Compound 521, 2-(2-methyl-2H-indazol-5-yl)-7-(piperidin-4-yl)-4H-pyrimido[1,2-b]pyridazin-4-one]	0.1 to 0.3 µM	**** (an EC1.5x≤0.3 μM is indicated by four stars (****))	***** (a fold increase >1.65 is indicated by five stars (*****))
Cc1cn2nc(-c3cc(=O)n4cc(N5CCNC(C)(C)C5)cc(C)c4n3)cc2c(C)n1 [Compound 544, 7-(3,3-dimethylpiperazin-1-yl)-2-(4,6-dimethylpyrazolo[1,5-a]pyrazin-2-yl)-9-methyl-4H-pyrido[1,2-a]pyrimidin-4-one]	< 0.1 µM	*** (an EC1.5× between >0.3 μM and ≤1 μM is indicated by three stars (***))	**** (a fold increase between >1.5 and ≤1.65 is indicated by four stars (****))
Cc1cn2cc(-c3cc(=O)n4cc(C5CCNCC5)ncc4n3)ccc2n1 [Compound 585, 2-(2-methylimidazo[1,2-a]pyridin-6-yl)-7-(piperidin-4-yl)-4H-pyrazino[1,2-a]pyrimidin-4-one]	< 0.1 µM	**** (an EC1.5x≤0.3 μM is indicated by four stars (****))	***** (a fold increase >1.65 is indicated by five stars (*****))
Cc1cn2cc(-c3cc(=O)n4cc(C5CCNCC5)ncc4n3)cc(Cl)c2n1 [Compound 587, 2-(8-chloro-2-methylimidazo[1,2-a]pyridin-6-yl)-7-(piperidin-4-yl)-4H-pyrazino[1,2-a]pyrimidin-4-one]	< 0.1 µM	**** (an EC1.5x≤0.3 μM is indicated by four stars (****))	**** (a fold increase between >1.5 and ≤1.65 is indicated by four stars (****))
Cc1cn2cc(-c3cc(=O)n4cc(C5CCNCC5)ncc4n3)cc(C)c2n1 [Compound 588, 2-(2,8-dimethylimidazo[1,2-a]pyridin-6-yl)-7-(piperidin-4-yl)-4H-pyrazino[1,2-a]pyrimidin-4-one]	< 0.1 µM	**** (an EC1.5x≤0.3 μM is indicated by four stars (****))	***** (a fold increase >1.65 is indicated by five stars (*****))
CN1CCN(c2cn3c(=O)cc(-c4ccc5nn(C)cc5c4)nc3cn2)CC1 [Compound 589, 2-(2-methyl-2H-indazol-5-yl)-7-(4-methylpiperazin-1-yl)-4H-pyrazino[1,2-a]pyrimidin-4-one]	0.1 to 0.3 µM	*** (an EC1.5× between >0.3 μM and ≤1 μM is indicated by three stars (***))	**** (a fold increase between >1.5 and ≤1.65 is indicated by four stars (****))
CC(C)N1CCC(c2ccc3nc(-c4ccc5nn(C)cc5c4)cc(=O)n3c2)CC1 [Compound 608, 2-(2-methyl-2H-indazol-5-yl)-7-[1-(propan-2-yl)piperidin-4-yl]-4H-pyrido[1,2-a]pyrimidin-4-one]	0.1 to 0.3 µM	** (an EC1.5× between >1 μM and ≤3 μM is indicated by two stars (**))	**** (a fold increase between >1.5 and ≤1.65 is indicated by four stars (****))
Cc1cn2cc(-c3cc(=O)n4cc(C5CCN(CCO)CC5)ccc4n3)cc(C)c2n1 [Compound 617, 2-(2,8-dimethylimidazo[1,2-a]pyridin-6-yl)-7-[1-(2-hydroxyethyl)piperidin-4-yl]-4H-pyrido[1,2-a]pyrimidin-4-one]	< 0.1 µM	**** (an EC1.5x≤0.3 μM is indicated by four stars (****))	***** (a fold increase >1.65 is indicated by five stars (*****))
